Data as given in PubChem BioAssay (NCI).
Where “and” joins values, the source holds several entries; their conditions need not be identical. Equal values may be shown once.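 Following 48 hours of exposure in 96-well plates, responses at five concentrations were used to interpolate endpoints linearly. GI50 marks 50% less growth. TGI: total growth inhibition.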

Key:
Assay in all cases: inhibition of tumour cell growth, NCI panel, 48 h
SN12C renal = system: SN12C renal
786-0 renal = system: 786-0 renal
IGROV1 ovarian = system: IGROV1 ovarian
UACC-62 melanoma = system: UACC-62 melanoma
PC-3 prostate = system: PC-3 prostate
TK-10 renal = system: TK-10 renal
T-47D breast = system: T-47D breast
MALME-3M melanoma = system: MALME-3M melanoma
SF-295 CNS = system: SF-295 CNS
UACC-257 melanoma = system: UACC-257 melanoma
SW-620 colon = system: SW-620 colon
HS 578T breast = system: HS 578T breast
A498 renal = system: A498 renal
OVCAR-3 ovarian = system: OVCAR-3 ovarian
U251 CNS = system: U251 CNS

Compound	TGI (SN12C renal)	TGI (786-0 renal)	TGI (IGROV1 ovarian)	TGI (UACC-62 melanoma)	TGI (PC-3 prostate)	TGI (TK-10 renal)	TGI (T-47D breast)	TGI (MALME-3M melanoma)	TGI (SF-295 CNS)	TGI (UACC-257 melanoma)	TGI (SW-620 colon)	TGI (HS 578T breast)	TGI (A498 renal)	TGI (OVCAR-3 ovarian)	TGI (U251 CNS)	GI50 (SN12C renal)	GI50 (IGROV1 ovarian)	GI50 (A498 renal)	GI50 (TK-10 renal)	GI50 (SW-620 colon)
c1csc(-c2sc(-c3ccsc3)cc2Cc2ccsc2)c1	> 10 µM	> 10 µM	> 10 µM	> 10 µM	> 10 µM	> 10 µM	> 10 µM	> 10 µM	> 10 µM	> 10 µM	> 10 µM	–	–	–	–	–	–	–	–	–
CC(C)(C)OC(=O)N(CCCCNC(=O)c1ccccc1)CCCNC(=O)c1ccccc1	> 100 µM	> 100 µM	> 100 µM	> 100 µM	> 100 µM	> 100 µM	> 100 µM	–	> 100 µM	> 100 µM	> 100 µM	> 100 µM	> 100 µM	> 100 µM	> 100 µM	–	–	–	–	–
CC12OC3(C(O)C1O)C(C(=O)O[C@H]3CO[Si](C)(C)C(C)(C)C)C2S(=O)(=O)c1ccccc1 (stereo partly drawn)	> 100 µM	> 100 µM	97.4 µM	36 µM	96.3 µM	> 100 µM	79.3 µM	–	> 100 µM	69 µM	> 100 µM	> 100 µM	> 100 µM	> 100 µM	> 100 µM	–	–	–	–	–
Cn1c2c(c3ccccc31)CC(=O)N1CCCC(C1)CC21OCCO1 (stereo not drawn)	> 100 µM	> 100 µM	> 100 µM	> 100 µM	> 100 µM	> 100 µM	> 100 µM	> 100 µM	> 100 µM	> 100 µM	> 100 µM	–	> 100 µM	> 100 µM	> 100 µM	–	–	–	–	–
CC(=O)N1N=C(c2ccccc2Nc2ccccc2C2=NN(C(C)=O)C(c3ccccc3)O2)OC1c1ccccc1 (stereo not drawn)	> 100 µM	> 100 µM	> 100 µM	> 100 µM	> 100 µM	> 100 µM	> 100 µM	> 100 µM	> 100 µM	–	> 100 µM	–	–	> 100 µM	> 100 µM	–	–	–	–	–
COc1ccc(N2C(=O)C(C#N)=C(SC)C(C#N)C2=O)cc1 (stereo not drawn)	> 100 µM	> 100 µM	> 100 µM	> 100 µM	> 100 µM	> 100 µM	–	> 100 µM	> 100 µM	> 100 µM	> 100 µM	89.8 µM	> 100 µM	–	> 100 µM	–	–	–	–	–
N#Cc1c(N)nc2c(N=Nc3ccccc3)c(N)nn2c1Nc1ccccc1	27.7 µM	38.5 µM	29.3 µM	–	–	52.6 µM	–	49.7 µM	59.9 µM	38.9 µM	50.3 µM	–	59.1 µM	35.1 µM	24.6 µM	–	–	–	–	–
CC1(Br)S(=O)(=O)OCCOS1(=O)=O	> 100 µM	> 100 µM	> 100 µM	> 100 µM	–	> 100 µM	–	> 100 µM	> 100 µM	> 100 µM	> 100 µM	–	> 100 µM	> 100 µM	> 100 µM	–	–	–	–	–
COc1ccccc1NC(=O)CC(=O)n1nc(-c2ccccc2)c(N=Nc2ccccc2[N+](=O)[O-])c1-c1ccccc1	> 100 µM	> 100 µM	> 100 µM	> 100 µM	–	> 100 µM	–	> 100 µM	> 100 µM	> 100 µM	> 100 µM	–	–	> 100 µM	> 100 µM	–	–	–	–	–
O=S(=O)(c1ccccc1)n1cnc(CCc2ccccc2)n1	> 100 µM	> 100 µM	> 100 µM	> 100 µM	–	> 100 µM	–	> 100 µM	> 100 µM	> 100 µM	> 100 µM	–	> 100 µM	> 100 µM	> 100 µM	–	–	–	–	–
O=[N+]([O-])c1ccc(OP(=O)(O)OCC2OC(CP(=O)(O)O)C(O)C2O)cc1 (stereo not drawn)	> 100 µM	> 100 µM	> 100 µM	> 100 µM	> 100 µM	> 100 µM	> 100 µM	–	> 100 µM	> 100 µM	> 100 µM	> 100 µM	> 100 µM	> 100 µM	> 100 µM	–	–	–	–	–
C=C(C)C1Cc2c(cc(OC)c3c(=O)c4ccccc4n(C)c23)O1 (stereo not drawn)	> 100 µM	> 100 µM	> 100 µM	> 100 µM	–	> 100 µM	–	> 100 µM	> 100 µM	> 100 µM	> 100 µM	–	> 100 µM	> 100 µM	> 100 µM	–	–	–	–	–
COC(=O)NN/C=C(\C=Nc1ccccc1)[N+](=O)[O-]	> 100 µM	> 100 µM	> 100 µM	> 100 µM	–	> 100 µM	–	–	–	> 100 µM	> 100 µM	–	–	> 100 µM	> 100 µM	–	–	–	–	–
COc1ccc2[nH]c3c(C)c4ccnc(NCCCN(C)CCCN)c4c(C)c3c2c1	0.257 µM	0.39 µM	0.678 µM	0.479 µM	0.712 µM	1.35 µM	0.814 µM	1.19 µM	0.66 µM	2.95 µM	–	–	–	1.54 µM	–	–	–	–	–	–
Cc1ccc(S(=O)(=O)Nn2c(C)cc3ccc(S(=O)(=O)Nc4ccccc4[N+](=O)[O-])cc3c2=O)cc1	> 100 µM	> 100 µM	> 100 µM	> 100 µM	> 100 µM	> 100 µM	–	> 100 µM	> 100 µM	> 100 µM	> 100 µM	> 100 µM	–	> 100 µM	> 100 µM	–	–	–	–	–
COc1cc(CC(C)N[C@@H](C)c2ccccc2)cc(OC)c1 (stereo partly drawn)	24.2 µM and > 100 µM	17.3 µM and > 100 µM	24.3 µM and > 100 µM	19.8 µM and > 100 µM	14.2 µM and > 100 µM	24.7 µM and > 100 µM	18.3 µM and > 100 µM	–	21.5 µM and > 100 µM	19.5 µM and > 100 µM	26.3 µM and > 100 µM	> 100 µM	21 µM and > 100 µM	21.1 µM and > 100 µM	19.8 µM and > 100 µM	11.8 µM and > 100 µM	10.6 µM and > 100 µM	7.9 µM and 41.8 µM	12.2 µM and 53.8 µM	11.7 µM and > 100 µM
NC(CCC(=O)NC(CSC(=O)N(O)c1ccc(Cl)cc1)C(=O)NCC(=O)O)C(=O)O (stereo not drawn)	> 0.5 µM	> 0.5 µM	> 0.5 µM	> 0.5 µM	> 0.5 µM	–	–	–	> 0.5 µM	> 0.5 µM	> 0.5 µM	> 0.5 µM	–	> 0.5 µM	> 0.5 µM	–	–	–	–	–
